Test results: patent publication US20250059201A1, “CAMPTOTHECIN COMPOUND AND CONJUGATE THEREOF” (priority 2021, published 2025)
Like-named read-outs stand apart in the source and are kept apart here.

Legend:
Format in all cases: cell-based
BxPC-3 cells = assay: Apoptosis-inducing effect; conditions: BxPC-3, 120 hours, over the tested concentrations
Experimental: BxPC-3 cells (purchased from: ATCC) were inoculated into 6-well plates, and then treated with Trop2-ADC-14 (0.020, 0.196, and 1.963 nM), DS-1062 (0.020, 0.196, and 1.963 nM), the mAb in Trop2-ADC-14 (i.e., antibody h23-12) (6.728 nM) and Compound 3 (0.1, 1, and 10 nM) for 120 hours. Next, the cells were harvested, and Annexin-V-FITC and PI were added thereto, and the cells were stained at room temperature for 15 minutes in dark, and finally were re-suspended in the added 300 μl of 1× binding buffer. Apoptosis was detected with a flow cytometer (BD AccuriTMC6 Plus flow cytometer), for which 1×10^4 cells were gated for each group. Experimental data was analyzed using software BD CSampler™ Plus C6.

Calu-3 = assay: Proliferation-inhibiting effect on tumor cells (SRB or MTT assay); conditions: Homo sapiens, Calu-3, 144 h
Experimental: (§1) For cells growing by adherence, SRB assay was used to detect effect of antibody-drug conjugates or camptothecins on the proliferation of tumor cells in vitro cultured. A certain number of cells in exponential growth phase were inoculated in 96-well cell culture plates, and when the cells grew by adherence overnight, antibody drug conjugates or camptothecins of different concentrations were added into the cells. 144 hours later, the cells were fixed with trichloroacetic acid, and then stained with SRB (prepared in 1% glacial acetic acid at a concentration of 4 mg/mL). 10 mM Tris solution was added into each well to solubilize the bound SRB. OD values at 510 nm were read on a microplate reader.
(§2) Inhibition (%)=([…] of control well−OD value of dosed well)/OD value of control well×100%
(§3) For cells growing in suspension, MTT assay was used to detect effect of antibody-drug conjugates or camptothecins on the proliferation of tumor cells in vitro cultured. A certain number of cells in exponential growth phase were inoculated in 96-well cell culture plates, and when the cells grew in suspension overnight, antibody-drug conjugates or camptothecins of different concentrations were added into the cells. 144 hours later, MTT was added to each well of the plates, and the incubation was continued for 4 hours at 37° C. in a 5% CO2 saturated humidity incubator. Next, 100 μL of SDS-isobutanol-HCl solution was added into each well of the plates, and OD values at 570 nm and 690 nm were read on a microplate reader.
(§4) Half maximal inhibitory concentration (IC50) was calculated from the inhibition (%) at those different concentrations using the software Graphpad Prism 8.0. The experiment was repeated once and the data was expressed as mean±SD.

MCF-7 = assay: as above; conditions: Homo sapiens, MCF7, 144 h
Experimental: as §1, §2, §3, §4

MDA-MB-468 = assay: as above; conditions: Homo sapiens, MDA-MB-468, 144 h, read-out: IC50 (nM) Mean ± SD
Experimental: as §1, §2, §3, §4

NCI-N87 = assay: as above; conditions: Homo sapiens, NCI-N87, 144 h
Experimental: as §1, §2, §3, §4

BT-474 = assay: as above; conditions: Homo sapiens, BT-474, 144 h
Experimental: as §1, §2, §3, §4

HT1376 = assay: as above; conditions: Homo sapiens, HT-1376, 144 h
Experimental: as §1, §2, §3, §4

BxPC-3 = assay: as above; conditions: Homo sapiens, BXPC-3, 144 h
Experimental: as §1, §2, §3, §4

MDA-MB-231 = assay: as above; conditions: Homo sapiens, MDA-MB-231, 144 h
Experimental: as §1, §2, §3, §4

MDA-MB-231/TROP2 = assay: as above; conditions: Homo sapiens, MDA-MB-231, 144 h
Experimental: as §1, §2, §3, §4

BT-20 = assay: as above; conditions: Homo sapiens, BT-20, 144 h
Experimental: as §1, §2, §3, §4

HT-29 = assay: as above; conditions: Homo sapiens, HT-29, 144 h
Experimental: as §1, §2, §3, §4

Colo 205 = assay: as above; conditions: Homo sapiens, COLO 205, 144 h
Experimental: as §1, §2, §3, §4

[1] = read-out: IC50 (nM) 1st experiment
[2] = read-out: IC50 (nM) 2nd experiment

SMILES: CC[C@@]1(O)C(=O)OCc2c1cc1n(c2=O)Cc2c-1nc1ccc(N)c3c1c2C(F)(F)CC3 [Compound 3]
- apoptosis-inducing effect (BxPC-3 cells): induced apoptosis of BxPC-3 cells in a concentration-dependent manner
- IC50 (Calu-3; [1]): 0.4 nM
- IC50 (Calu-3; [2]): 0.4 nM
- IC50 (Calu-3; read-out: IC50 (nM) Mean ± SD): 0.4 ± 0.02 nM
- IC50 (MCF-7; [1]): 0.2 nM
- IC50 (MCF-7; [2]): 0.1 nM
- IC50 (MCF-7; read-out: IC50 (nM) Mean ± SD): 0.11 ± 0.08 nM
- IC50 (MDA-MB-468): 0.16 ± 0.01 nM
- IC50 (NCI-N87; [1]): 0.4 nM
- IC50 (NCI-N87; [2]): 0.5 nM
- IC50 (NCI-N87; read-out: IC50 (nM) Mean ± SD): 0.47 ± 0.07 nM
- IC50 (BT-474; [1]): 2.3 nM
- IC50 (BT-474; [2]): 0.5 nM
- IC50 (BT-474; read-out: IC50 (nM) Mean ± SD): 1.43 ± 1.25 nM
- IC50 (HT1376; [1]): 1 nM
- IC50 (HT1376; [2]): 0.9 nM
- IC50 (HT1376; read-out: IC50 (nM) Mean ± SD): 0.98 ± 0.08 nM
- IC50 (BxPC-3; [1]): 0.2 nM
- IC50 (BxPC-3; [2]): 0.2 nM
- IC50 (BxPC-3; read-out: IC50 (nM) Mean ± SD): 0.17 ± 0.01 nM
- IC50 (MDA-MB-231; [1]): 0.8 nM
- IC50 (MDA-MB-231; [2]): 0.8 nM
- IC50 (MDA-MB-231; read-out: IC50 (nM) Mean ± SD): 0.69 ± 0.15 nM
- IC50 (MDA-MB-231/TROP2; [1]): 0.1 nM
- IC50 (MDA-MB-231/TROP2; [2]): 0.1 nM
- IC50 (MDA-MB-231/TROP2; read-out: IC50 (nM) Mean ± SD): 0.06 ± 0.01 nM
- IC50 (BT-20; [1]): 0.5 nM
- IC50 (BT-20; [2]): 0.5 nM
- IC50 (BT-20; read-out: IC50 (nM) Mean ± SD): 0.53 ± 0.01 nM
- IC50 (HT-29; [1]): 0.4 nM
- IC50 (HT-29; [2]): 0.4 nM
- IC50 (HT-29; read-out: IC50 (nM) Mean ± SD): 0.4 ± 0.01 nM
- IC50 (Colo 205; [1]): 0.2 nM
- IC50 (Colo 205; [2]): 0.2 nM
- IC50 (Colo 205; read-out: IC50 (nM) Mean ± SD): 0.21 ± 0.05 nM
